# Measurements taken from patent US20240239818A1, “COMPOUNDS AND COMPOSITIONS COMPRISING FLUOROPHORES FOR USE IN VISUALIZATION AND PURIFICATION OR MANIPULATION” (priority 2022, published 2024).
# Where two headings read alike, the source gives them in different places.
# Tests used:
# [1] = Determination of lactone-zwitterion equilibrium constant (KL-Z); assay type: physicochemical; settings: 1:1 (v/v) dioxane:water
# Experimental: Determination of KL-Z. The lactone-zwitterion equilibrium constant (KL-Z) was calculated as described previously^13, 23, 32, 45 using equation 1: […]
# where εdw is the extinction coefficient of the dyes in a 1:1 (v/v) dioxane:water solvent mixture containing 0.01% (v/v) triethylamine; this dioxane water mixture was chosen to give a large range of KL-Z values,^23 and the triethylamine additive ensures the rhodamines are in the net neutral form. The εmax is the maximal extinction coefficient, measured in 0.1% (v/v) trifluoroacetic acid in 2,2,2-trifluoroethanol (TFE).
# [2] = biological target: T1, msGFP-HaloTag® fusion localized to the mitochondrial outer membrane (Rhodococcus rhodochrous, UniProt P0A3G2, A155T/A167V/A172T/A224E/C128F/C176G/D78G/E160K/E257K/H272N/K175M/K195N/L47V/L88M/N227D/S58T/T264A/Y273L/Y87F); test: HEK293T labeling and fluorescence microscopy; assay type: cell-based; settings: for labeling of mitochondria-localized HaloTag®-msGFP fusion: live HEK293T cells, nanomolar concentration (100 nM, 1 h); for cellular fluorescence intensity (JF ligand/msGFP ratio): HEK293T cells, 100 nM, same imaging conditions; for concentration at which ligand can be deployed for cellular labeling: live cells
# T1 construct: expressed in transfected cells; host or cells: HEK293T, calcium phosphate transfection
# Excerpt: Plasmid construction. HaloTag®, amplified from the pHTC HaloTag® CMV-neo Vector (Promega; G7711) and monomeric-superfolder green fluorescent protein (msGFP; lab stock), was fused to the mitochondrial targeting signal from OMP25,^28 interspacing flexible GS(GSS)4 linkers between each domain by PCR Splicing by Overlap Extension (SOE). This construct was subcloned into hSynapsin promoter bearing a copy of FUGW.^29 FUGW was a gift from David Baltimore (Addgene plasmid #14883; RRID: Addgene_14883).^48 This construct was designated as pF(UG) hSyn HaloTag®-TEV-4×GS-msGFP-mito.
# HEK293T cell culture. HEK293T cells (ATCC) were passaged before 80% confluency by trypsinization (Corning; 25-053-CI) and trituration. The cell suspension was then plated on glass coverslips (Warner instruments; 64-0734, CS-18R17) coated with poly-D-lysine (Thermofisher; ICN10269491) and cultured in Dulbecco's Modified Eagle Medium (DMEM; ThermoFisher; 11965-118) supplemented with 10% v/v fetal bovine serum (FBS, Atlanta Biological) and penicillin/streptomycin (pen/strep; ThermoFisher; MT-30-001-CI) at 37° C. in a humidified 5% v/v CO2 environment following ATCC guidelines. These HEK293T cells were tested for mycoplasma contamination using the Universal Mycoplasma Detection Kit (ATCC; 30-1012K) and validated using Short Tandem Repeat profiling by ATCC (ATCC; 135-XV) within the previous year.
# HEK293T labeling and fluorescence microscopy. […] For pulse-chase experiments, HEK293T cells were incubated with biotin-HaloTag® ligand (6; #G8281, Promega) at either 100 nM or 10 μM for 1 hour at 37° C. and chased with 100 nM of JANELIA FLUOR® (JF)549-HaloTag® ligand (2HTL). […] For imaging, the coverslips containing HEK293T cells were fixed with 4% paraformaldehyde in PBS at 37° C. for 10 min, washed with PBS (3×), and mounted on glass slides with ProLong Glass Antifade Mountant with NucBlue™ Stain (ThermoFisher; P36981). These cells were imaged using a Zeiss LSM 880 with Airyscan and a plan-apochromatic 63×/1.40 oil objective in Fast Airyscan mode. The same image acquisition settings were used for each trial and condition. Images were then processed with automatic Airyscan deconvolution settings.
# [3] = assay type: physicochemical
# Experimental: Determination of logD7.4. The log of distribution coefficients at pH 7.4 was determined in octanol-phosphate-buffered saline (PBS) using the miniaturized shake flask setup described previously.^36, 47 Briefly, 150 mL each of octanol and PBS pH 7.4 were stirred vigorously for 12-16 h. The layers were allowed to stand for at least 24 h for phase separation. The separated layers were collected and served as PBS saturated with octanol (PBS*) and octanol saturated with PBS (octanol*). Stock solutions (1 mM or 5 mM) of ligands were prepared in DMSO and diluted in PBS* to obtain 1 μM or 10 μM (3-5 mL) of the standard (std). This standard was used to prepare appropriate dilutions using octanol*, in triplicate, in 2-mL glass vials. The leftover standard was used to determine the standard concentration (Cstd). The vials were vortexed for 1 min and shaken horizontally at 700 rpm for 2 h. The vials were then shaken upright at 150 rpm for 2 h to allow the phases to separate. The octanol* layer was pipetted out, and the PBS* layer was used for further analyses. The concentrations of ligands in the standard and PBS* (CPBS*) were determined via fluorescence measurements of 200 μL of PBS* or std in 96-well plates on the Cytation 5 Multimode Plate Reader (BioTek). For Si-rhodamine containing ligands, 2-20 μL of trifluoroacetic acid was added to each well of the 96-well plate prior to the fluorescence measurements. Reported values are averages of at least two measurements. The logD7.4 was obtained as described previously using equation 2:
# [formula] • where Cstd is the standard concentration in PBS, CPBS* is the concentration in PBS after partitioning, r is the dilution factor of the standard solution, VPBS* is the volume of PBS used in the partitioning, and Voctanol* is the volume of octanol used in the partitioning.
# [4] = system: HaloTag®-histone H2B fusion protein; assay type: cell-based; settings: for time to reach saturation of labeling: 200 nM, live U2OS cells expressing HaloTag®-H2B, 0-4 h
# Experimental: Dye loading kinetics. Live U2OS.H2B.HaloTag® stable cells were labeled over a time course of 0-4 h with 200 nM of biotin-JF549-HaloTag® ligand (12), biotin-JF608-HaloTag® ligand (13), biotin-JF646-HaloTag® ligand (14), or biotin-JF635-HaloTag® ligand (15) at 37° C. Cells were then washed 3× with dye-free media, fixed with 4% paraformaldehyde in 0.1 M phosphate buffer, pH 7.4 for 15 min at 37° C. Confocal imaging was performed on a Leica SP8 with an HC PL APO CS2 20×/0.75 immersion objective using the tunable white light laser (WLL) to excite dyes at their λabs in constant power mode. Fluorescence was quantified as the average integrated density of background corrected nuclear signals from confocal image stack projections analyzed in FIJI; n=100 nuclear signals per compound.
# T1 sequence (P0A3G2 other isoform, or with tags, fused parts or gaps with the stated changes): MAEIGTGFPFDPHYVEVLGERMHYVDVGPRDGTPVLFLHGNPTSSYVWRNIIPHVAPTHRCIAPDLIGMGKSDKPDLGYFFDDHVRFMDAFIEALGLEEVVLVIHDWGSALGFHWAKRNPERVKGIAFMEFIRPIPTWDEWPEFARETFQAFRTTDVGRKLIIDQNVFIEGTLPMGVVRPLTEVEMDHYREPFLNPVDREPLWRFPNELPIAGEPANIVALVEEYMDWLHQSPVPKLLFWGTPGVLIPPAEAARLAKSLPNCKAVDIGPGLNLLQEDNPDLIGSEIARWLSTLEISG
Compound,KL-Z [1],labeling of mitochondria-localized HaloTag®-msGFP fusion [2],logD7.4 ([3]; octanol-PBS pH 7.4),time to reach saturation of labeling [4],cellular fluorescence intensity (JF ligand/msGFP ratio) [2],concentration at which ligand can be deployed for cellular labeling [2] [nM],membrane permeability [4],logD7.4 ([3]; pH 7.4)
"C[Si]1(C)c2cc(N3CC(F)C3)ccc2C2(OC(=O)c3ccc(C(=O)NCCOCCOCCCCCCCl)cc32)c2ccc(N3CC(F)C3)cc21 [5HTL, JF635-HaloTag® ligand, reference compound]",0.0048,labeled the mitochondria in live cells,3.82,,,,,
"C[Si]1(C)C2=CC(=[N+]3CC(F)(C(=O)NCCOCCOCCNC(=O)CCCC[C@@H]4SC[C@@H]5NC(=O)N[C@@H]54)C3)C=CC2=C(c2cc(C(=O)NCCOCCOCCCCCCCl)ccc2C(=O)[O-])c2ccc(N3CC(F)C3)cc21 (stereo partly shown) [compound 15, Biotin-JF635-HaloTag® ligand]",0.0032,labeled the mitochondria in live cells,3.6,approximately 1 h,lower fluorescence intensity than 5HTL,100,,
"C[Si]1(C)C2=CC(=[N+]3CC(C(=O)NCCOCCOCCNC(=O)CCCC[C@@H]4SC[C@@H]5NC(=O)N[C@@H]54)C3)C=CC2=C(c2cc(C(=O)NCCOCCOCCCCCCCl)ccc2C(=O)[O-])c2ccc(N3CCC3)cc21 (stereo partly shown) [compound 14, Biotin-JF646-HaloTag® ligand]",0.0086,labeled the mitochondria in live cells,3.06,approximately 1 h,,100,,
Biotin-JF549-HaloTag® ligand [compound 12],5.9,did not show appreciable cellular labeling,,,poor labeling,,negligible membrane permeability,0.07
